According to article PMC11530130, “Peripherally restricted PICK1 inhibitor mPD5 ameliorates pain behaviors in murine inflammatory and neuropathic pain models” (JCI Insight, 2024):
Several values for one entry are separate records, joined by “and”; a condition that tells them apart may be missing. Identical values can stand only once.

What was measured:
[1] = molecular target: T1, recombinant full-length PICK1 (Rattus norvegicus, UniProt Q9EP80); assay: SEC of recombinant PICK1 in absence or presence of mPD5; format: binding; details: PICK1 40 μM with mPD5 10 μM; from 10.9 mL to 2 peaks at 8 mL and 9 mL
T1 construct: Full length rat PICK1 (pET41) was, as described earlier (1), expressed in BL21-DE3-pLysS; inferred from the pET41 vector and the glutathione-Sepharose capture) (N, cleaved yes); made in house; host or cells: E. coli BL21-DE3-pLysS
Experimental: SUPPORTING INFORMATION: Method Section.
Sex as a biological variable.
All peptides were ordered from WuXI AppTec (Shanghai, China) or TAG-Copenhagen […]
Assessment of solubility and stability of mPD5.
Solubility was determined by visual inspection of samples dissolved in increasing concentration in 10 mM PBS as judged by full transparency and monophasic appearance.
Stability was addressed by […] for four concentrations (2, 20, 50, and 200 µM), by leaving mPD5 in PBS at 5 °C and 25 °C for 30 days followed by HPLC-UV-MS.
Protein expression and purification.
Full length rat PICK1 (pET41) was, as described earlier (1), expressed in BL21-DE3-pLysS and grown at 37 °C, induced at OD600= 0.6 with 1 mM IPTG, and grown for 16 hours at 20 °C.
Cultures were harvested and re-suspended in 50 mM Tris, 125 mM NaCl, 2 mM DTT (Sigma), 1% Triton X-100 (Sigma), 20 µg/mL DNAse 1 and half a tablet of cOmplete protease inhibitor cocktail (Roche) pr. 1 L culture. The resuspended pellets were frozen at -80 °C for later purification. […] PICK1 was eluted on ice and concentration was measured on a NanoDrop 3000.
Fluorescence polarization binding. […]
binding surface 96 well plates (Sigma-Aldrich, Ref. no. 3686). The plates were incubated 20 min on ice and the fluorescence polarization was measured on an Omega POLARstar plate reader (BMG LABTECH) using excitation filter of 485 nm and long pass emission filter of 520 nm. […]

[2] = tested on: mice, spared nerve injury (SNI) model; assay: SNI model, von Frey, repeated s.c. administration on 2 consecutive days; format: in vivo, mouse; parameters: von Frey threshold, Fig 7A, individual mice: unit not given here
From the text: Repeated and sustained administration of mPD5 in the SNI model.
For the experiment with repeated administration of mPD5 (Figure 7A), male C57BL/6J (Janvier, France) mice underwent surgery leading to partial nerve injury, by cutting the peroneal and tibial nerves, producing hypersensitivity of the remaining sural nerve (SNI) as described in the “Induction of neuropathic pain (SNI model).”-section. On day 21 after surgery, hyperalgesia was confirmed by using von Frey filaments to induce mechanically evoked hypersensitivity and measure paw withdrawal threshold of the animals as described in the “Mechanically-evoked pain (von Frey).”-section. On the same day, mice were injected s.c. with 2, 10, or 50 μmol/kg mPD5 (10 μL/g) and evoked pain was tested again with the use of von Frey filaments at 1 and 5 hours after injection. 24 hours after the first injection, mice were injected s.c. with 2, 10, or 50 μmol/kg mPD5 (10 μL/g) again and evoked pain was tested with the use of von Frey filaments at 1, 5, and 24 hours after the second injection. […]

T1 sequence (Q9EP80 whole entry): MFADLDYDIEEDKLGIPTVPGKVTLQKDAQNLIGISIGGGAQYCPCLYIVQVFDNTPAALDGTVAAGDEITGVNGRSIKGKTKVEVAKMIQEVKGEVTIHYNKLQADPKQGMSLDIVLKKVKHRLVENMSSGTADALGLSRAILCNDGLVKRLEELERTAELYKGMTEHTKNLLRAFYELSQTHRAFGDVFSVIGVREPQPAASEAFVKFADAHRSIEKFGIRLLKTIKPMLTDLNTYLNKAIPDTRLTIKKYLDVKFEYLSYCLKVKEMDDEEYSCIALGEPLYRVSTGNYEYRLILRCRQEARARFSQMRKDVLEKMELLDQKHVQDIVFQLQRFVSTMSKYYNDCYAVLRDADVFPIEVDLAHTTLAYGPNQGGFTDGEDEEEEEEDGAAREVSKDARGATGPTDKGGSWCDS

For CCCCCCCCCCCCCC(=O)N(CCOCCOCCC(=O)N[C@@H](Cc1c[nH]cn1)C(=O)N[C@@H](Cc1c[nH]c2ccccc12)C(=O)N[C@@H](CC(C)C)C(=O)N[C@@H](CCCCN)C(=O)N[C@H](C(=O)O)C(C)C)CCOCCOCCC(=O)N[C@@H](Cc1c[nH]cn1)C(=O)N[C@@H](Cc1c[nH]c2ccccc12)C(=O)N[C@@H](CC(C)C)C(=O)N[C@@H](CCCCN)C(=O)N[C@H](C(=O)O)C(C)C [mPD5, myristoyl-NPEG4-(HWLKV)2], the “shift of PICK1 SEC elution (higher-order complexes)” value [1] was “distinct shift in the peak elution volume of PICK1”, the “von Frey threshold, contralateral paw, Fig 7A, individual mice” value (“von Frey threshold, contralateral paw” below) ([2]; A_contra, hr 5 day2) was 1.4 and 1 (3×) and the “von Frey threshold, contralateral paw” value ([2]; A_contra, hr23) was 1 (3×) and 1.4 (4×) and 2. For the same compound, the “von Frey threshold, contralateral paw” value ([2]; A_contra, hr1 day 1) was 1.4 (6×) and 1 and 2, the “von Frey threshold, contralateral paw” value ([2]; A_contra, hr 1 day 2) was 1 (5×) and 1.4 (2×) and 2 and the “von Frey threshold, contralateral paw” value ([2]; A_contra, hr 5 day 1) was 1.4 (6×) and 2 and 1. For the same compound, the “von Frey threshold, contralateral paw” value ([2]; B_contra, hr23) was 1.4 (4×) and 1 (3×) and 2, the “von Frey threshold, contralateral paw” value ([2]; B_contra, hr1 day 1) was 1.4 (5×) and 1 (3×) and the “von Frey threshold, contralateral paw” value ([2]; B_contra, hr 1 day 2) was 1.4 (5×) and 1 (3×). For the same compound, the “von Frey threshold, contralateral paw” value ([2]; B_contra, hr 5 day 1) was 1.4 and 1 (2×) and 2 (5×), the “von Frey threshold, contralateral paw” value ([2]; C_comtra, hr23) was 2 and 1.4 (5×) and 1 (2×) and the “von Frey threshold, contralateral paw” value ([2]; C_comtra, hr1 day 1) was 3 and 2 (2×) and 1 (2×) and 1.4 (3×). The “von Frey threshold, contralateral paw” value ([2]; C_comtra, hr 1 day 2) was 1 (2×) and 1.4 (4×) and 2 (2×), the “von Frey threshold, contralateral paw” value ([2]; C_comtra, hr 5 day 1) was 2 and 1 (4×) and 1.4 (3×) and the “relief of mechanical hypersensitivity” value ([2]; SNI 3 weeks after surgery, first day, s.c. 50 μmol/kg only, 5 hours) was “significant effect at 5 hours”. The “relief of mechanical hypersensitivity” value ([2]; SNI 3 weeks after surgery, first day, s.c. 2, 10, 50 μmol/kg (all concentrations), 1 hour) was “significant effects at 1 hour”, the “relief of mechanical hypersensitivity” value ([2]; SNI, next day (second injection), only 10 and 50 μmol/kg, 1 and 5 hours after administration) was “significant pain relief” and the development of tolerance ([2]; SNI, s.c. 2, 10, 50 μmol/kg on 2 consecutive days) was “do not indicate immediate development of tolerance”. The “von Frey threshold, Fig 7A, individual mice” value (shortened to “von Frey threshold, Fig 7A”) ([2]; group 2, hr 5 day2) was 0.07 and 0.16 (2×), the “von Frey threshold, Fig 7A” value ([2]; group 2, hr23) was 0.07 (5×) and 0.16 (3×) and the “von Frey threshold, Fig 7A” value ([2]; group 2, hr1 day 1) was 0.16 and 1 (2×) and 0.6 (2×) and 1.4 and 0.4 (2×). The “von Frey threshold, Fig 7A” value ([2]; group 2, hr 1 day 2) was 0.16 (3×) and 1 and 0.6 (3×) and 0.4, the “von Frey threshold, Fig 7A” value ([2]; group 2, hr 5 day 1) was 0.07 (2×) and 0.4 (3×) and 0.16 (2×) and 0.6 and the “von Frey threshold, Fig 7A” value ([2]; group 10, hr 5 day2) was 1. The “von Frey threshold, Fig 7A” value ([2]; group 10, hr23) was 0.16 (3×) and 0.4 (3×) and 0.07 (2×), the “von Frey threshold, Fig 7A” value ([2]; group 10, hr1 day 1) was 1 (3×) and 2 (2×) and 0.4 and 1.4 and 0.6 and the “von Frey threshold, Fig 7A” value ([2]; group 10, hr 1 day 2) was 1 (3×) and 2 (2×) and 0.4 (2×) and 1.4. For the same compound, the “von Frey threshold, Fig 7A” value ([2]; group 10, hr 5 day 1) was 0.16 and 2 and 1 (2×) and 0.07 and 0.4 (3×), the “von Frey threshold, Fig 7A” value ([2]; group 50, hr23) was 0.16 (5×) and 0.07 (3×) and the “von Frey threshold, Fig 7A” value ([2]; group 50, hr1 day 1) was 1.4 (5×) and 1 and 0.6 and 0.16. The “von Frey threshold, Fig 7A” value ([2]; group 50, hr 1 day 2) was 1 (4×) and 0.6 and 1.4 (2×) and 0.4 and the “von Frey threshold, Fig 7A” value ([2]; group 50, hr 5 day 1) was 0.6 (3×) and 1 and 0.4 (2×) and 0.16 (2×).
